Publication PMC8151276, “An Integrated Approach toward NanoBRET Tracers for Analysis of GPCR Ligand Engagement” (Molecules, 2021)

Target: T1, DRD2 (Homo sapiens, UniProt P14416)
T1 construct: purchased Promega (in-house HiBiT-GPCR construct library, NanoBRET)
Assay: NanoBRET screen HiBiT-DRD2 in HEK293
Assay type: binding
Experimental: Each tracer candidate was screened across the entire library of HiBiT-GPCR constructs using NanoBRET as the detection modality. As depicted in Figure 4A, the specificity of interactions was evaluated through decrease in BRET due to competitive displacement of a bound tracer by excess parental compound. Each tracer was analyzed for binding to each HiBiT-GPCR fusion in the absence and in the presence of competing parental compound. Briefly, HEK293 cells were transfected with HiBiT-GPCR constructs diluted into promoterless DNA to reduce expression and maximize translocation to the cell surface. Each tracer candidate was then screened at concentrations of 1 μM and 0.1 μM across cells expressing these fusions. Cells were treated for 1.5 h with tracer either alone or in the presence of 20 μM competing parental compound (i.e., control). BRET was measured upon addition of purified LgBiT and subsequent complementation with HiBiT genetically fused to a GPCR. The specificity of interactions was assessed through a decrease in BRET signal due to competitive displacement of the bound tracer. To further gauge the robustness of these interactions, the fold response over the control (i.e., BRETtracer/BRETcontrol) was calculated. We chose a 1.5-fold response, which translates to ≥7-fold signal over noise as the minimal threshold required to score an interaction as positive.
HiBiT-GPCR DNA constructs were diluted in 10 mM Tris pH 8 to a final concentration of 0.01 μg/μL, arrayed in 96-well plates and stored at −20 °C. For transfection, HEK293 cells were suspended in Opti-MEM (without phenol red) supplemented with 2% fetal bovine serum (Seradigm) and 100 units/mL penicillin–streptomycin (Gibco) at a final concentration of 220,000 cells/mL and dispensed into white 96-well plates at 90 μL/well. Subsequent transfections and screens were carried using an Agilent Bravo Automated Liquid Handling Platform. First, the 96-well HiBiT DNA arrays were diluted 25-fold in Opti-MEM (without serum or phenol red) to a final concentration of 0.0004 μg/μL and 20 μL of the diluted DNAs were transferred into new 96-well plates. Next, promoterless carrier DNA (1 μg/μL) was diluted 25-fold (0.04 μg/μL) and then dispensed into the diluted arrays at 20 μL/well. Following brief mixing, Viafect transfection reagent (Promega) diluted 16-fold into Opti-MEM was dispensed into the plates at 40 μL/well. After mixing by pipetting, plates were incubated for 10 min on the pipetting station deck. The DNA-transfection reagent complexes were then added to plates containing cells. To facilitate the screen, 10 μL of DNA-transfection reagent complexes were added in duplicates to the top 4 and bottom 4 rows, resulting in two identical 48-well arrays per plate. Plates with transfected cells were incubated for 18–20 h at 37 °C/5% CO2. A screen of each tracer across the entire library using two different concentrations requires duplicate plates of transfected cells. Depending on the number of tracers being screened, transfections can be scaled up using the same ratios. The next day, for each tracer, four 20× screening solutions in tracer dilution buffer (Promega) were prepared: two duplicates at final concentration of 20 μM and two duplicates at a final concentration of 2 μM. […] The four resulting solutions were diluted 4-fold in Opti-MEM without serum or phenol red to generate 5× solutions (5 µM and 0.5 µM tracer +/− 100 μM competing compound). To screen the library, a BioTek MultiFlo FX liquid dispenser was used to dispense 22.5 µL of tracer solution to the top 4 rows and 22.5 µL tracer + competing compound solution to the 4 bottom rows. Plates were briefly mixed on an orbital shaker and incubated for 1.5 h at room temperature. […] Plates were briefly mixed on an orbital shaker and incubated for 15 min to allow complementation.

T1 sequence (P14416 whole entry): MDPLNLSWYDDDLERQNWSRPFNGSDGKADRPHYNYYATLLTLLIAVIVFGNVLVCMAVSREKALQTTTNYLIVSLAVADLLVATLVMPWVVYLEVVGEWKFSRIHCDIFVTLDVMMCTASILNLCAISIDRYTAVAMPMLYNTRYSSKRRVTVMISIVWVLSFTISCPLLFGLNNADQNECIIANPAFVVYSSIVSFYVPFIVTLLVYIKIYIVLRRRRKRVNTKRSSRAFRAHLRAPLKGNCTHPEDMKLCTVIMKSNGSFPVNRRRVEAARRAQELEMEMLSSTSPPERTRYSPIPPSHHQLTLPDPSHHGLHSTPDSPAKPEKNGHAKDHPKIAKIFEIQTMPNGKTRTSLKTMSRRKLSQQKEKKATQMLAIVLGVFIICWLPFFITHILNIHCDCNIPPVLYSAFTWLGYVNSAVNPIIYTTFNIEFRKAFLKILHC

| SMILES | NanoBRET Fold Response (DRD2, tracer 0.1μM) | NanoBRET Fold Response (DRD2, tracer 1μM) | also measured |
| --- | --- | --- | --- |
| CCOC(=O)c1cc(C#N)c(N2CCC(C(=O)NS(=O)(=O)Cc3ccccc3/C=C/C(=O)NCCNC(=O)CCc3ccc4n3[B-](F)(F)[N+]3=C(c5ccc[nH]5)C=CC3=C4)CC2)nc1C [AZD1283-1-NB590] |  |  | NanoBRET Fold Response (DRD2, 0.1μM): 1.04; NanoBRET Fold Response (DRD2, 1μM): 1.08 |
| N#CN/C(=N\CCNC(=O)c1ccc(N)cc1)NCCCOc1cccc(CN2CCCCC2)c1 [Aminopotentidine (unmodified)] |  |  | NanoBRET Fold Response (DRD2, other tracers/Aminopotentidine (unmodified), 0.1μM): 1.53; NanoBRET Fold Response (DRD2, other tracers/Aminopotentidine (unmodified), 1μM): 1.51 |
| N#CN=C(NCCCOc1cccc(CN2CCCCC2)c1)NCCNC(=O)CCOCCOCCOCCOCCNC(=O)CCc1ccc2n1[B-](F)(F)[N+]1=C(c3ccc[nH]3)C=CC1=C2 [Aminopotentidine-2-NB590] | 1.18 | 1.22 |  |
| CN(C)CCC=C1c2ccccc2CCc2ccc(C(=O)NCCNC(=O)CCOCCOCCOCCOCCNC(=O)CCc3ccc4n3[B-](F)(F)[N+]3=C(c5ccc[nH]5)C=CC3=C4)cc21 [Amitriptyline-a-2-NB590] |  |  | NanoBRET Fold Response (tracer at 0.1μM): 1.50; NanoBRET Fold Response (tracer at 1μM): 1.97 |
| CN(C)CCC=C1c2ccccc2CCc2ccc(C(=O)NCCNC(=O)CCOCCOCCOCCOCCNC(=O)CCc3ccc4n3[B-](F)(F)[N+]3=C(c5ccc[nH]5)C=CC3=C4)cc21 [Amitriptyline-b-2-NB590] |  |  | NanoBRET Fold Response (tracer at 0.1μM, listed as amitriptyline-b-2-NB590): 1.54 |
| CN(CCC=C1c2ccccc2CCc2ccccc21)C(=O)CCOCCOCCOCCOCCNC(=O)CCc1ccc2n1[B-](F)(F)[N+]1=C(c3ccc[nH]3)C=CC1=C2 [Amitriptyline-e-2-NB590] |  |  | NanoBRET Fold Response (tracer at 1μM): 1.34 |
| COc1ccc2c(n1)c(CCNC(C)=O)cn2CCNC(=O)CCc1ccc2n1[B-](F)(F)[N+]1=C(c3ccc[nH]3)C=CC1=C2 [Azamelatonin-1-NB590] |  |  | NanoBRET Fold Response (0.1μM tracer): 1.19; NanoBRET Fold Response (1μM tracer): 0.52 |
| COc1ccc2[nH]c(-c3ccc(CNC(=O)CCOCCOCCOCCOCCNC(=O)CCc4ccc5n4[B-](F)(F)[N+]4=C(c6ccc[nH]6)C=CC4=C5)cc3)c(CCNC(C)=O)c2n1 [AzomelatoninICO9-2-NB590] |  |  | NanoBRET Fold Response (0.1μM tracer): 1.00; NanoBRET Fold Response (1μM tracer): 1.03 |
| O=C(CCOCCOCCOCCOCCNC(=O)CCc1ccc2n1[B-](F)(F)[N+]1=C(c3ccc[nH]3)C=CC1=C2)NCCCN1CCN(C2=Nc3cc(Cl)ccc3Nc3ccccc32)CC1 [Clozapine-a-2-NB590] |  |  | NanoBRET Fold Response (DRD2, 0.1μM tracer): 2.85; NanoBRET Fold Response (DRD2, 1μM tracer): 2.37 |
| O=C(CCOCCOCCOCCOCCNC(=O)CCc1ccc2n1[B-](F)(F)[N+]1=C(c3ccc[nH]3)C=CC1=C2)NCCCN1CCN(C2=Nc3ccccc3Oc3ccc(Cl)cc32)CC1 [Loxapine-a-2-NB590] | 1.97 | 1.62 |  |
| COc1ccccc1N1CCN(CCCCN2C(=O)c3ccc(CNC(=O)CCOCCOCCOCCOCCNC(=O)CCc4ccc5n4[B-](F)(F)[N+]4=C(c6ccc[nH]6)C=CC4=C5)cc3C2=O)CC1 [NAN-190-2-NB590] | 2.31 | 1.36 |  |
| COc1ccccc1N1CCN(CCCCN2C(=O)c3ccc(CNC(=O)CCOCCNC(=O)c4ccc(CNC(=O)CCc5ccc6n5[B-](F)(F)[N+]5=C(c7ccc[nH]7)C=CC5=C6)cc4)cc3C2=O)CC1 [NAN-190-3-NB590] | 1.80 | 1.21 |  |
| O=C(CCc1ccc2n1[B-](F)(F)[N+]1=C(c3ccc[nH]3)C=CC1=C2)NCc1ccc(C(=O)NCCOCCC(=O)N[C@@H]2CC[C@@]3(O)[C@H]4Cc5ccc(O)c6c5[C@@]3(CCN4CC3CC3)[C@H]2O6)cc1 [Naltrexone-3-NB590] | 0.98 | 1.36 |  |
| Cc1cc2c(s1)Nc1ccccc1N=C2N1CCN(CCCNC(=O)CCOCCOCCOCCOCCNC(=O)CCc2ccc3n2[B-](F)(F)[N+]2=C(c4ccc[nH]4)C=CC2=C3)CC1 [Olanzapine-a-2-NB590] | 1.98 | 2.25 |  |
| O=C(CCc1ccc2n1[B-](F)(F)[N+]1=C(c3ccc[nH]3)C=CC1=C2)NCc1ccc(C(=O)NCCOCCOCCNCC(O)COc2cccc3ccccc23)cc1 (centres unmarked) [Propranolol-3-NB590] |  |  | NanoBRET Fold Response (DRD2, 0.1μM): 1.17; NanoBRET Fold Response (DRD2, 1μM): 1.09 |
| O=C(CCc1ccc2n1[B-](F)(F)[N+]1=C(c3ccc[nH]3)C=CC1=C2)NCCOCCOCCNC(=O)OCCOCCN1CCN(C2=Nc3ccccc3Sc3ccccc32)CC1 [Quetiapine-a-2-NB590] | 1.86 | 1.76 |  |
| Cc1nc2n(c(=O)c1CCN1CCC(c3noc4cc(F)ccc34)CC1)CCCC2OC(=O)NCCOCCOCCOCCOCCNC(=O)CCc1ccc2n1[B-](F)(F)[N+]1=C(c3ccc[nH]3)C=CC1=C2 (centres unmarked) [Risperidone-2-NB590] | 2.85 | 2.07 |  |
| CC(C)N(CC[C@H](c1ccccc1)c1cc(CCNC(=O)CCOCCOCCOCCOCCNC(=O)CCc2ccc3n2[B-](F)(F)[N+]2=C(c4ccc[nH]4)C=CC2=C3)ccc1O)C(C)C [Tolterodine-2-NB590] | 1.07 | 1.09 |  |
| CC(C)N(CC[C@H](c1ccccc1)c1cc(CCNC(=O)c2ccc(CNC(=O)CCc3ccc4n3[B-](F)(F)[N+]3=C(c5ccc[nH]5)C=CC3=C4)cc2)ccc1O)C(C)C [Tolterodine-BZ-NB590] | 1.34 | 1.78 |  |
| CCCn1c(=O)c2[nH]c(-c3ccc(OCC(=O)NCCNC(=O)CCOCCNC(=O)c4ccc(CNC(=O)CCc5ccc6n5[B-](F)(F)[N+]5=C(c7ccc[nH]7)C=CC5=C6)cc4)cc3)nc2n(CCC)c1=O [XAC-3-NB590] | 1.17 | 1.85 |  |
